# Laboratory results: patent US8338473B2, “Derivatives of psammaplin A, a method for their synthesis and their uses for the prevention or treatment of cancer” (Centre National de la Recherche Scientifique, priority 2007, dated 2012)
# Assays:
# [1] = tested on: TRAIL promoter; assay: Histone H3 acetylation at the TRAIL locus (Chip and qPCR) in U937 cells; assay type: cell-based, human; conditions: U937, time course
# Protocol: (§1) FIG. 5: a) Analysis of the histone H3 acetylation levels on the TRAIL promoter regulatory region and on the TRAIL gene first intron carried out Chip and qPCR in U937 cells after the indicated time course with UVI5008; the ‘NoAb’ represents the negative control; b) TRAIL mRNA expression after the indicated times of incubation with UVI5008; G6PDH levels have been used for equal loading; c) TRAIL protein expression levels measured by ELISA assay in U937 cells after 24 hrs treatment with UVI5008.
# [2] = tested on: p53; assay: p53 acetylation in MCF7 cells (Western blot); assay type: cell-based, human; conditions: MCF7, 6 hrs, co-treatment with Etoposide 25 μM
# Protocol: FIG. 13B: western blot of MCF7 cells treated with etoposide alone or in presence of sirtinol (a known SIRT2 inhibitor) and with uvi5008 concentrations of 50 μM and 5 μM.
# MCF7 cells (human breast cancer cells) have been growth following standard procedure and have been treated for 6 hrs with the indicated compounds in presence of 25 μM Etoposide. Total protein extracts have been run on SDS gel and blotted. Western Blot has been carried out by using the anti p53 ac382 (Abcam) following standard procedures. ERKs (Santa Cruz) have been used for equal loading control.
# [3] = tested on: U937 cells; assay: Caspase 3 apoptotic assay in U937 cells; assay type: cell-based, human; conditions: U937, 24 hrs
# Protocol: (§2) FIG. 1: a) Cell cycle analysis of U937 cells treated for 30 hrs with the indicated compounds used at 1 and 5 μM; b) Caspase 3 apoptotic assay of the indicated compounds after 24 hrs of treatment in the U937 cells; c) Tubulin acetylation and p21 expression levels at 6 and 16 hrs after treatment with the indicated compounds; total tubulin expression levels are used for equal loading; d) Histone H3 acetylation and K9 H3 methylation expression levels at 6 and 16 hrs after treatment with the indicated compounds; total tubulin expression levels are used for equal loading; e) K9, K14, K18 histone H3 acetylation expression levels at 6 and 16 hrs after treatment with the indicated compounds; total ERKs expression levels are used for equal loading; f) HDAC1 enzymatic assay: IP-HDAC1 is incubated with the indicated inhibitors for 24 Hrs; activity is measured as ^3H-acetyl release; g) HDAC4 enzymatic assay: IP-HDAC4 is incubated with the indicated inhibitors for 24 hrs; activity is measured as ^3H-acetyl release.
# [4] = tested on: TRAIL; assay: TRAIL expression (RT-PCR and ELISA) in U937 cells; assay type: cell-based, human; conditions: protein after 24 hrs
# Protocol: as §1
# [5] = tested on: U937 acute myeloid leukemia cell line; assay: Cell cycle analysis in U937 cells; assay type: cell-based, human; conditions: U937, 30 hrs
# Protocol: as §2
# FIG. 3: a) Cell cycle and apoptosis analysis carried out in U937 cells after 24 hrs with the indicated compounds; values are media of independent triplicates; b) CD11c expression analysis carried out in U937 cells with the indicated compounds; values are media of independent duplicates; c) Tubuline acetylation and p21 expression levels in U937 cells after 24 hrs with the indicated treatments; total ERKs expression levels are used for equal loading; d) acetylation of histone H3 under the conditions indicated in (c).
# (§3) Human leukemia cell line U937 was propagated in RPMI medium supplemented with 10% FBS (Foetal bovine serum; Hyclone) and antibiotics (100 U/mL penicillin, 100 μg/mL streptomycin and 250 ng/mL amphotericin-B). Cells were kept at the constant concentration of 200000 cells per milliliter of culture medium. For AML samples, bone marrow containing 80% to 90% leukemic blasts was purified over Ficoll. This study was approved by the Ethical Committee of the Second University of Naples.
# MS-275 (Schering A G) was dissolved in ethanol and used at 5×10^−6M; valproic acid (VPA; Sigma) was used at 1 mM. All other compounds described were dissolved in DMSO (Sigma-Aldrich) and used at 1 or 5 μM.
# 2.5×10^5 cells were collected and resuspended in 500 μL of a hypotonic buffer (0.1% Triton X-100, 0.1% sodium citrate, 50 μg/mL propidium iodide, RNAse A). Cells were incubated in the dark for 30 min. Samples were acquired on a FACS-Calibur flow cytometer using the Cell Quest software (Becton Dickinson) and analysed with standard procedures using the Cell Quest software (Becton Dickinson) and the ModFit LT version 3 Software (Verity). All the experiments were performed 3 times.
# [6] = target: T1, HDAC6 (Homo sapiens, UniProt Q9UBN7); assay: Alpha tubulin acetylation in U937 cells (HDAC6 readout); assay type: cell-based; conditions: U937, 6 and 16 hrs
# T1 construct: Tubuline acetylation and p21 expression levels in U937 cells after 24 hrs with the indicated treatments; endogenous in cells; host or cells: U937
# Protocol: as §2, with “release. […]” for “release.”
# [7] = tested on: DU-145 cells; assay: MTT cytotoxicity assay, DU-145; conditions: read-out: IC50 values, MTT cytotoxicity assay; DU-145, 48 h
# Protocol: Plates were kept in the humidified CO2 (5%) incubator overnight so that cells get attached to the bottom. […] Viable cells cleave the MTT tetrazolium ring into a dark blue formazan reaction product, whereas dead cells remain colorless. The MTT-containing medium was gently removed and DMSO was added in each well. After shaking, the plates were read in absorbance at 540 nm. All results are expressed as the average of three wells. Percent cytotoxicity was measured of each compound and represented in terms of its IC50 values.
# [8] = tested on: ex vivo AML patient blasts; assay: Cell cycle and apoptosis in ex vivo AML patient blasts; assay type: cell-based, human
# Protocol: FIG. 4: a) Cell cycle analyses and apoptosis carried out in ex vivo samples from AML patients identified with numbers; b) Cell cycle analysis, apoptosis and histone H3 acetylation levels of #116 AML cells after 20 hrs is of the indicated treatments.
# as §3
# [9] = tested on: DNA methyltransferase (DNMT); assay: DNMT enzymatic in vitro assay; assay type: biochemical; conditions: 1.5 and 50 μM
# Protocol: FIG. 2: a) Methylation specific PCR for the RARβ gene after 16 and 24 hrs of treatment with the indicated compounds; b) Methylation specific PCR for the p16 gene after 24 hrs of the indicated treatments. Samples are representative of real duplicates; c) p16 expression levels in U937 cells after 24 hrs with the indicated treatments; d) DNMT enzymatic in vitro assay carried out with 1.5 and 50 μM of the indicated compounds;
# T1 sequence (Q9UBN7 whole entry): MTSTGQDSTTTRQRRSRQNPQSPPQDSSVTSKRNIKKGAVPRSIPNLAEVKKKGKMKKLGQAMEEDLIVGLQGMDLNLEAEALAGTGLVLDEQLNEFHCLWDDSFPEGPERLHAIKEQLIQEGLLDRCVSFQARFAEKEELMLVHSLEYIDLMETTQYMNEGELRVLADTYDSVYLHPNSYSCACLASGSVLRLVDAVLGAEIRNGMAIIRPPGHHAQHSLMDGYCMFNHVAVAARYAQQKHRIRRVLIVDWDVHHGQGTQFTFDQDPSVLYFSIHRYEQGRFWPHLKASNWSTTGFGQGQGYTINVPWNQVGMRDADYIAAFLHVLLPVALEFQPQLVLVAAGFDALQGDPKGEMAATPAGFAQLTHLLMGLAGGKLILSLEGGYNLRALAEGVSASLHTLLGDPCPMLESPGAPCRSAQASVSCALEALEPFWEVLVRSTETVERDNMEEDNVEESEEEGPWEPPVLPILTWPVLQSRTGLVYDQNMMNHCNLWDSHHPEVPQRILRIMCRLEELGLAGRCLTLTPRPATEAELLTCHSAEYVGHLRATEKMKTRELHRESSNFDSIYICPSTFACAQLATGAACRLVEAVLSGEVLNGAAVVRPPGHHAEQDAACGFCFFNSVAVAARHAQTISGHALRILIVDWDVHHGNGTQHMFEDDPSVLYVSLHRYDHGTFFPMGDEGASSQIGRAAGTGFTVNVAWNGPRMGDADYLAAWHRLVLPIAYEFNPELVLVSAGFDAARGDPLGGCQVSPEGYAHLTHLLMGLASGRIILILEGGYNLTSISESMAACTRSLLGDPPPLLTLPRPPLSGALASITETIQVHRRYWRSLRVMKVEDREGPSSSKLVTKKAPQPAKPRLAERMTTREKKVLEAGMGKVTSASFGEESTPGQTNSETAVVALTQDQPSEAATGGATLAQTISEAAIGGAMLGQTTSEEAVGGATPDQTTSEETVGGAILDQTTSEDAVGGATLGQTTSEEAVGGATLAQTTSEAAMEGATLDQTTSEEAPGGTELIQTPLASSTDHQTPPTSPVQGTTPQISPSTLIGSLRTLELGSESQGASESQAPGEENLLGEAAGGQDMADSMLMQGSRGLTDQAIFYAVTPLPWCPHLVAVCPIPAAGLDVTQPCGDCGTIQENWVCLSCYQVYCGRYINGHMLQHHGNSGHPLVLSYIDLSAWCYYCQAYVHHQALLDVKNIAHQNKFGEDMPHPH
smiles,measurement,setting,value
O=C(NCCSSCCNC(=O)C(Cc1c[nH]c2ccc(Br)cc12)=NO)C(Cc1c[nH]c2ccc(Br)cc12)=NO [UVI5008],H3K9 acetylation of the chromatin at the TRAIL promoter,[1],rapid dramatic H3K9 acetylation
same,p53 acetylation levels (readout of SIRT inhibition),[2],hyperacetylation
same,apoptogenic effect (caspase 3),[3],strongest apoptogenic effect
same,TRAIL expression at mRNA and protein levels,[4],increased expression
same,"cell cycle arrest, position of the block",[5]; 1 μM,arrests cells in G2-M
same,"cell cycle arrest, position of the block",[5]; 1 and 5 μM,arrests in the S and G2 phases
same,inhibition of HDAC6 (alpha tubulin acetylation),[6],inhibited the activity of HDAC6
same,IC50,[7],2400 ± 300 nM
same,apoptotic activity,"[8]; 5 μM, two samples of patient blasts",showed an apoptotic activity
same,cell cycle arrest and apoptosis (caspase 3 activation),"[8]; 4 ex vivo cultures, AML patients #102, #108, #109, #116",induced cell cycle arrest and apoptosis
same,DNMT inhibition,[9],nearly as active as RG108 albeit at higher concentrations
